Source: ChEMBL document CHEMBL3880411, “Multikinase inhibitors for use in the treatment of cancer” (2009)
The source made the active and inactive calls. No cut-off for these calls is given here.

Key:
[1] = Cytotoxicity against human SK-MEL-2 cells expressing N-ras Q61R mutant assessed as reduction in cell viability after 96 hrs by CellTiter-Glo luminescence assay or methylene blue assay; type: functional, cell-based; settings: SK-MEL-2, 96 h
[2] = biological target: Tyrosine-protein kinase Lck (Homo sapiens) (UniProt P06239); test: Inhibition of human Lck assessed as remaining activity at 0.1 uM after 40 mins in presence of [gamma33P-ATP] by scintillation counting
[3] = Cytotoxicity against human DLD1 cells expressing K-ras G13D mutant assessed as reduction in cell viability after 96 hrs by CellTiter-Glo luminescence assay or methylene blue assay; type: functional, cell-based; settings: DLD-1, 96 h
[4] = Cytotoxicity against human DU4475 cells expressing B-RAF V600E mutant assessed as reduction in cell viability after 96 hrs by CellTiter-Glo luminescence assay or methylene blue assay; type: functional, cell-based; settings: DU-4475, 96 h
[5] = Cytotoxicity against human AU565 cells assessed as reduction in cell viability after 96 hrs by CellTiter-Glo luminescence assay or methylene blue assay; type: functional, cell-based; settings: AU565, 96 h
[6] = Antiproliferative activity against human THP1 cells after 96 hrs by MTT assay; type: functional, cell-based; settings: THP-1, 96 h
[7] = Antiproliferative activity against human MV4-11 cells expressing Flt-3 activation mutant after 96 hrs by CellTiter-Glo luminescence assay; type: functional, cell-based; settings: MV4-11, 96 h
[8] = Cytotoxicity against human MDA-MB-435 cells expressing B-RAF V600E mutant assessed as reduction in cell viability after 96 hrs by CellTiter-Glo luminescence assay or methylene blue assay; type: functional, cell-based; settings: MDA-MB-435, 96 h
[9] = Antiproliferative activity against human U266 cells after 96 hrs by MTT assay; type: functional, cell-based; settings: U-266, 96 h
[10] = biological target: Nuclear factor NF-kappa-B complex (Homo sapiens) (UniProt Q00653+P19838+Q04206); test: Inhibition of NFkappaB (unknown origin); type: protein-complex assay
[11] = biological target: Proto-oncogene tyrosine-protein kinase Src (Homo sapiens) (UniProt P12931); test: Inhibition of human c-Src assessed as remaining activity at 0.1 uM after 40 mins in presence of [gamma33P-ATP] by scintillation counting
LOX = test: Antitumor activity against human LOX cells expressing B-RAF V600E mutant xenografted in athymic mouse assessed as tumor regression at 10 to 40 mg/kg, iv administered for two weekly rounds of five injections daily with two-day rest period between the rounds measured twice weekly from first day of treatment; type: functional, organism-based
[12] = biological target: Tyrosine-protein kinase Lck (Homo sapiens) (UniProt P06239); test: Inhibition of human Lck assessed as remaining activity at 1 uM after 40 mins in presence of [gamma33P-ATP] by scintillation counting
[13] = biological target: Tyrosine-protein kinase Yes (Homo sapiens) (UniProt P07947); test: Inhibition of human Yes assessed as remaining activity at 0.1 uM after 40 mins in presence of [gamma33P-ATP] by scintillation counting
[14] = biological target: Tyrosine-protein kinase Fyn (Homo sapiens) (UniProt P06241); test: Inhibition of human Fyn assessed as remaining activity at 0.1 uM after 40 mins in presence of [gamma33P-ATP] by scintillation counting
[15] = Antiproliferative activity against human NALM6 cells after 96 hrs by MTT assay; type: functional, cell-based; settings: NALM-6, 96 h
[16] = tested on: Receptor-type tyrosine-protein kinase FLT3 (Homo sapiens), P36888 [UNDEFINED MUTATION]; test: Inhibition of Flt-3 activation mutant phosphorylation in human MV4-11 cells after 24 hrs by Western blot analysis; type: cell-based
[17] = Cytotoxicity against human LoVo cells expressing K-ras G13D mutant assessed as reduction in cell viability after 96 hrs by CellTiter-Glo luminescence assay or methylene blue assay; type: functional, cell-based
[18] = biological target: Tyrosine-protein kinase Lyn (Homo sapiens) (UniProt P07948); test: Inhibition of human Lyn assessed as remaining activity at 0.1 uM after 40 mins in presence of [gamma33P-ATP] by scintillation counting
[19] = Antiproliferative activity against human HL60 cells after 96 hrs by MTT assay; type: functional, cell-based; settings: HL-60, 96 h
[20] = biological target: Tyrosine-protein kinase Lyn (Homo sapiens) (UniProt P07948); test: Inhibition of human Lyn assessed as remaining activity at 1 uM after 40 mins in presence of [gamma33P-ATP] by scintillation counting
[21] = Antiproliferative activity against human K562 cells after 96 hrs by MTT assay; type: functional, cell-based; settings: K562, 96 h
[22] = Cytotoxicity against human MIAPaCa2 cells expressing K-ras G12C mutant assessed as reduction in cell viability after 96 hrs by CellTiter-Glo luminescence assay or methylene blue assay; type: functional, cell-based; settings: MIA PaCa-2, 96 h
[23] = Cytotoxicity against human MDA-MB-231 cells expressing K-ras G13D mutant assessed as reduction in cell viability after 96 hrs by CellTiter-Glo luminescence assay or methylene blue assay; type: functional, cell-based; settings: MDA-MB-231, 96 h
[24] = Cytotoxicity against human HCT116 cells expressing K-ras G13D mutant assessed as reduction in cell viability after 96 hrs by CellTiter-Glo luminescence assay or methylene blue assay; type: functional, cell-based; settings: HCT-116, 96 h
[25] = biological target: Tyrosine-protein kinase ABL1 (Homo sapiens) (UniProt P00519); test: Inhibition of human Abl assessed as remaining activity at 0.1 uM after 40 mins in presence of [gamma33P-ATP] by scintillation counting
[26] = biological target: Receptor-type tyrosine-protein kinase FLT3 (Homo sapiens) (UniProt P36888); test: Inhibition of human Flt3 assessed as remaining activity at 0.1 uM after 40 mins in presence of [gamma33P-ATP] by scintillation counting
[27] = Cytotoxicity against human COLO205 cells expressing B-RAF V600E mutant assessed as reduction in cell viability after 96 hrs by CellTiter-Glo luminescence assay or methylene blue assay; type: functional, cell-based; settings: COLO 205, 96 h
[28] = biological target: Tyrosine-protein kinase Yes (Homo sapiens) (UniProt P07947); test: Inhibition of human Yes assessed as remaining activity at 1 uM after 40 mins in presence of [gamma33P-ATP] by scintillation counting
[29] = biological target: Tyrosine-protein kinase ABL1 (Homo sapiens) (UniProt P00519); test: Inhibition of human Abl assessed as remaining activity at 1 uM after 40 mins in presence of [gamma33P-ATP] by scintillation counting
[30] = Cytotoxicity against human HT-29 cells expressing B-RAF V600E mutant assessed as reduction in cell viability after 96 hrs by CellTiter-Glo luminescence assay or methylene blue assay; type: functional, cell-based; settings: HT-29, 96 h
[31] = Cytotoxicity against human MCF7 cells assessed as reduction in cell viability after 96 hrs by CellTiter-Glo luminescence assay or methylene blue assay; type: functional, cell-based; settings: MCF7, 96 h
[32] = biological target: BDNF/NT-3 growth factors receptor (Homo sapiens) (UniProt Q16620); test: Inhibition of human TrkB assessed as remaining activity at 1 uM after 40 mins in presence of [gamma33P-ATP] by scintillation counting
[33] = Cytotoxicity against human SK-MEL-31 cells expressing B-RAF V600E mutant assessed as reduction in cell viability after 96 hrs by CellTiter-Glo luminescence assay or methylene blue assay; type: functional, cell-based
[34] = Cytotoxicity against human SK-MEL-3 cells expressing B-RAF V600E mutant assessed as reduction in cell viability after 96 hrs by CellTiter-Glo luminescence assay or methylene blue assay; type: functional, cell-based; settings: SK-MEL3, 96 h

Tyrosine-protein kinase Yes (Homo sapiens), sequence (P07947 2-543 limits assumed): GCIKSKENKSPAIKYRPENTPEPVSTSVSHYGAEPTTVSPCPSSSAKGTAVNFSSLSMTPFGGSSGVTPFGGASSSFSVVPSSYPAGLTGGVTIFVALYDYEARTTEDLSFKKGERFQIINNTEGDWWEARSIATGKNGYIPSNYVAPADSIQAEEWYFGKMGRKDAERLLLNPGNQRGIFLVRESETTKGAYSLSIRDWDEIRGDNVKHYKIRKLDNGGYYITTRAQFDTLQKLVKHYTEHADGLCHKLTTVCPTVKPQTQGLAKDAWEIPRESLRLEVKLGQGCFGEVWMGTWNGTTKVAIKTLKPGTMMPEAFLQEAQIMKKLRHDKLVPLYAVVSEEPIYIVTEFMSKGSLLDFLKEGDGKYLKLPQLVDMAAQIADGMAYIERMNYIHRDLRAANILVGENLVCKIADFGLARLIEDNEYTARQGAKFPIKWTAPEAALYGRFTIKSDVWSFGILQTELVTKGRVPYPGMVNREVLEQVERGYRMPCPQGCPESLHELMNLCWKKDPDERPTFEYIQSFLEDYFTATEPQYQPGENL
Tyrosine-protein kinase Lyn (Homo sapiens), sequence (P07948 2-512 limits assumed): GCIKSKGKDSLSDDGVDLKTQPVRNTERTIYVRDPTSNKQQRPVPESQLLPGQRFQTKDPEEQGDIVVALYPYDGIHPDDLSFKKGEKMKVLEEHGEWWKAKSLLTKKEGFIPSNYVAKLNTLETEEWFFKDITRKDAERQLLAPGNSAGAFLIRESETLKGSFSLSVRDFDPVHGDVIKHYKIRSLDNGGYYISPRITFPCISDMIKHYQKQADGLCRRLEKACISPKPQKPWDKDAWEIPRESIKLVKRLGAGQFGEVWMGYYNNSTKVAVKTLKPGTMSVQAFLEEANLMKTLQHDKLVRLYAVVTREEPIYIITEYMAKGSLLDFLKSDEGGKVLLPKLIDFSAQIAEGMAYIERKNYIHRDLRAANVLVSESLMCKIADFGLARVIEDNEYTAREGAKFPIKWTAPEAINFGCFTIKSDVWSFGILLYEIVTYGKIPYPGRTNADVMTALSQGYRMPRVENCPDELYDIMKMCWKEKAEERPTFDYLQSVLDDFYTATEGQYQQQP
Tyrosine-protein kinase Lck (Homo sapiens), sequence (P06239 2-509 limits assumed): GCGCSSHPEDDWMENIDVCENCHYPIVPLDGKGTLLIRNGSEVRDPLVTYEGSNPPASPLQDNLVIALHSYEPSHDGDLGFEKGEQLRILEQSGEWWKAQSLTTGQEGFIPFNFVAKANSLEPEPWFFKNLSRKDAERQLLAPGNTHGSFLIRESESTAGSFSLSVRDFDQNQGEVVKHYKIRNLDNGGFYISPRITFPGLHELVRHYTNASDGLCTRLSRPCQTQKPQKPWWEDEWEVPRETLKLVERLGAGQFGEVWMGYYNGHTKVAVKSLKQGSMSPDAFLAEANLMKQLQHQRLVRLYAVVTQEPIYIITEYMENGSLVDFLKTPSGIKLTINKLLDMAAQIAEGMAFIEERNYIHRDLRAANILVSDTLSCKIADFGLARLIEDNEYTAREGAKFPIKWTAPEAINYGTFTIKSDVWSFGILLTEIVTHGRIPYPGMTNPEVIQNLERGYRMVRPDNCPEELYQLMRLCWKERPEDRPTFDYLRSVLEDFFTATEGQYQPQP
Tyrosine-protein kinase ABL1 (Homo sapiens), sequence (P00519 whole entry): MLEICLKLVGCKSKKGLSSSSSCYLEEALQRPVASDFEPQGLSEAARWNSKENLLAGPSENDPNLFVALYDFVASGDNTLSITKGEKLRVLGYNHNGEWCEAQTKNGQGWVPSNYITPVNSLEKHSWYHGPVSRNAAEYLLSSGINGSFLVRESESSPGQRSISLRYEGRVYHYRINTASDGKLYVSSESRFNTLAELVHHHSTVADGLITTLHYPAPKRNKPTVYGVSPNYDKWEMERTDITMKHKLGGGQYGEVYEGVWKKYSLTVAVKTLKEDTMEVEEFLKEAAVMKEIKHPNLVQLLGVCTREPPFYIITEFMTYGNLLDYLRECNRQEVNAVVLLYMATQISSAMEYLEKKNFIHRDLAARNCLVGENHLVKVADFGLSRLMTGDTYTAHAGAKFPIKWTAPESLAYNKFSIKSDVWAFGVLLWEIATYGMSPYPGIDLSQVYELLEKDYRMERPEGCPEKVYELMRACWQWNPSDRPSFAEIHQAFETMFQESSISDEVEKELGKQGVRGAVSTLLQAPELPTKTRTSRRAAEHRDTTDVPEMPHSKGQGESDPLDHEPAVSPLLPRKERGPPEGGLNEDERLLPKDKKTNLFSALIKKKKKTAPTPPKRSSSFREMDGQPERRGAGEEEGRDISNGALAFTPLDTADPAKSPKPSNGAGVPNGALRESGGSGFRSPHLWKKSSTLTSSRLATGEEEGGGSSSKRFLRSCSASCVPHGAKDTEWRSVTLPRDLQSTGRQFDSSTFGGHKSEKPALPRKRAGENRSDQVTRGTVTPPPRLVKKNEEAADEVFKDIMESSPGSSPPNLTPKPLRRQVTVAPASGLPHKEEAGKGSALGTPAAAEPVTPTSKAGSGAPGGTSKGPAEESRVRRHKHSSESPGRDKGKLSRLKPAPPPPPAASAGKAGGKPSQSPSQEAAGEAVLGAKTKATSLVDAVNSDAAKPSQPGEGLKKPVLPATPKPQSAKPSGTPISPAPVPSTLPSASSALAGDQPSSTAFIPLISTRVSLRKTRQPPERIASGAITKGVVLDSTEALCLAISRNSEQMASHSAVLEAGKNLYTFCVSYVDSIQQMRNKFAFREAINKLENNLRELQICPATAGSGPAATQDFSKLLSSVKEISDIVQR
Receptor-type tyrosine-protein kinase FLT3 (Homo sapiens), sequence (P36888 whole entry): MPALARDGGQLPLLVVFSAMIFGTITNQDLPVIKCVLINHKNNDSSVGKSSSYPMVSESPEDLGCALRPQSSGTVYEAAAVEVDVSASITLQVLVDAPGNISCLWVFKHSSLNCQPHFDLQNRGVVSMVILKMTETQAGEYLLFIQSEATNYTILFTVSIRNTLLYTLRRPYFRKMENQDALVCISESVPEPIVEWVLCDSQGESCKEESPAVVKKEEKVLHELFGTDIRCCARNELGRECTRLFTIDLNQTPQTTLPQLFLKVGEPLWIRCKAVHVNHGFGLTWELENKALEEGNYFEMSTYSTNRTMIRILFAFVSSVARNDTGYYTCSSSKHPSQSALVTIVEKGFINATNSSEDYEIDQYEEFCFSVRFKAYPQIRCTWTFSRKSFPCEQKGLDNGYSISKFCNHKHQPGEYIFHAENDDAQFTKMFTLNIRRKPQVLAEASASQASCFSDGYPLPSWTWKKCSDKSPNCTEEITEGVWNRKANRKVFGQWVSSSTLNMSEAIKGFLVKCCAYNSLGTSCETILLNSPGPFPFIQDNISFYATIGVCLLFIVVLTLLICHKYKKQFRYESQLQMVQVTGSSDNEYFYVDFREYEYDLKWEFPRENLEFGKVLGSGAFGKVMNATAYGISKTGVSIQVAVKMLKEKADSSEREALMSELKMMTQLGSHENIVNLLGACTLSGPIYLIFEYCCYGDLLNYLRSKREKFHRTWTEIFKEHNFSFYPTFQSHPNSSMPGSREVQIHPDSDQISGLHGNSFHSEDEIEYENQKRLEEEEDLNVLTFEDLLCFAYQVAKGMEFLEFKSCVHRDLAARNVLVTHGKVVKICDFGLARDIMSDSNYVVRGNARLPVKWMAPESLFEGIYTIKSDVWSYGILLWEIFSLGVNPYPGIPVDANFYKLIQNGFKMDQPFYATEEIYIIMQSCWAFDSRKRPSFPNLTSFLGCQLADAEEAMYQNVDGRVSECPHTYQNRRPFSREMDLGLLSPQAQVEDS
Receptor-type tyrosine-protein kinase FLT3 (Homo sapiens), P36888 [UNDEFINED MUTATION], sequence (P36888 whole entry, looked up, stated change not applied): as the sequence (P36888 whole entry) above
Tyrosine-protein kinase Fyn (Homo sapiens), sequence (P06241 2-537 limits assumed): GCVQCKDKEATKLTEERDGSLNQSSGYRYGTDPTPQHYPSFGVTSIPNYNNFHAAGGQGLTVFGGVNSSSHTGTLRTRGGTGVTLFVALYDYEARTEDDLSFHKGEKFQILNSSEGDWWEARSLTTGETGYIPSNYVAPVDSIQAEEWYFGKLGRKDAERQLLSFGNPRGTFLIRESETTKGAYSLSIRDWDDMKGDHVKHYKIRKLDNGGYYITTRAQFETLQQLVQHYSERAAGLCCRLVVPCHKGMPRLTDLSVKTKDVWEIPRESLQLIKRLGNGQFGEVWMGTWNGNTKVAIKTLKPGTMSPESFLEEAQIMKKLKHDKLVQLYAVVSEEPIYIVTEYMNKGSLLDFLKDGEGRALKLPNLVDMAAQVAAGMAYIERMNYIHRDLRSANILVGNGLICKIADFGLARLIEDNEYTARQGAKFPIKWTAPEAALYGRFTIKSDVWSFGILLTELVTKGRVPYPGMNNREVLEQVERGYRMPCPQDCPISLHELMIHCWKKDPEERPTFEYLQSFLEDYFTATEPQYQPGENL
Proto-oncogene tyrosine-protein kinase Src (Homo sapiens), sequence (P12931 2-536 limits assumed): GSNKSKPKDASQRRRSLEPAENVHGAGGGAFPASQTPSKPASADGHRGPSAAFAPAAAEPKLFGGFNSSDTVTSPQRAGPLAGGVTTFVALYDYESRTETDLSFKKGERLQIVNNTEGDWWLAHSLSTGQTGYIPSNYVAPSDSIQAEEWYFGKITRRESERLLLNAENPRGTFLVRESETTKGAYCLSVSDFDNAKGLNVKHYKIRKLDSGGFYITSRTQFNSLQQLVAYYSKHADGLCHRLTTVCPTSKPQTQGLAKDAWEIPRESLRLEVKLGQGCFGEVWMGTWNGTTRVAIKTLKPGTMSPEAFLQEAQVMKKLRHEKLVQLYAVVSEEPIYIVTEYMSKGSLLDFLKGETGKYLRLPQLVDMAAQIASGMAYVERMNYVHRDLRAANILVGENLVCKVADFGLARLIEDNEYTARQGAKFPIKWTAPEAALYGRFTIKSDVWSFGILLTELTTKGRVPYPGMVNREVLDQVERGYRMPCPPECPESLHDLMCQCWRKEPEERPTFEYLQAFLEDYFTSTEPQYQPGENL

Compound: CCNc1cc(O)c2c(c1)/C=C/C[C@H](O)[C@H](O)C(=O)/C=C\[C@@H](C)[C@H](C)OC2=O [E-6201]
- IC50 [1]: 135 nM
- Activity [2]: 27%
- IC50 [3]: 649 nM
- IC50 [4]: 52 nM
- IC50 [5]: > 10000 nM
- IC50 [6]: 120 nM
- IC50 [7]: 8.2 nM
- IC50 [8]: 71 nM
- IC50 [9]: 950 nM
- inhibition [10]: Active
- Activity [11]: 31%
- Activity (LOX): Active
- Activity [12]: 0%
- Activity [13]: 54%
- Activity [14]: 24%
- IC50 [15]: 620 nM
- inhibition [16]: Dose-dependent effect
- IC50 [17]: 132 nM
- Activity [18]: 45%
- IC50 [19]: 60 nM
- Activity [20]: 2%
- IC50 [21]: 1800 nM
- IC50 [22]: 734 nM
- IC50 [23]: 156 nM
- IC50 [24]: 423 nM
- Activity [25]: 51%
- Activity [26]: 33%
- IC50 [27]: 43 nM
- Activity [28]: 8%
- Activity [29]: 15%
- IC50 [30]: 84 nM
- IC50 [31]: > 10000 nM
- Activity [32]: 4%
- IC50 [33]: 225 nM
- IC50 [34]: 24 nM
